Experiment [1] relates to mice. The experiment can be described thus: Drug Effects on Phenylbenzoquinone-induced Writhing in Mice. It counts as in vivo, Male Swiss albino mice. The conditions noted are these: p.o., PBQ i.p. 60 minutes after dosing, writhes in 15 min. The procedure: A further test used to determine the utility of the compounds of the present invention is designated: Drug Effects on Phenylbenzoquinone-induced Writhing in Mice
The objective of this test is to determine the ability of test drugs to inhibit the nociceptive (pain) response of mice injected with a chemical irritant. This test is a primary screen for both peripheral and centrally acting analgesic drugs.
Male Swiss albino mice (15-25 g). The animals are fasted for 18 hours prior to use but have free access to water.
Drug Preparation and Administration:
Drugs are dissolved or suspended according to their solubility in 0.5% Tween 80 in distilled water. They are administered by gastric gavage in a volume of 5 mL/kg. […]
A modification of the method of Siegmund et al, Proc. Soc. Exp. Biol. Med., 95, 729-731 (1957) is used. Groups of 5 mice are dosed with the test compound or vehicle control. […] The number of writhing or abdominal squirming movements made by each mouse during the following 15 min. period is counted. The experiment is repeated with another group of 5 mice and the mean numbr of writhes per mouse for a group of 10 mice is calculated.
Drug treated and vehicle-treated control groups are compared and the percentage protection conferred by the drug is calculated: [formula] where c=mean number of writhes in the control group where t=mean number of writhes in the test drug group
(In general: In writhing tests, fewer writhes than in controls are read as antinociception.)

Experiment [2] concerns rats. As to the kind of experiment: Preventative Adjuvant Edema. The note with it: p.o., dosed days 0, 1 and 2, edema volume day 3. It counts as in vivo, Male Sprague Dawley rats. The procedure:
This test is a primary screen for anti-inflammatory drugs.
Male Sprague Dawley rats (180-200 g) are used. The animals have free access to water but food is withdrawn 18 hours before testing.
Drug Preparations and Adminstration:
Freund's complete adjuvant is prepared by suspending 5 mg of killed and dried Mycobacterium butyricum (Difco) in 1 mL mineral oil. The test compounds are dissolved, or suspended in 0.5% Tween 80 in distilled water according to their solubility. […]
The method is essentially that described by Wax et al, J. Pharmacol. Exp. Ther., 192, 166-171 (1975). Groups of rats are injected intradermally in the left hind paw with 0.1 mL of Freund's complete adjuvant. The test compound or vehicle is administered immediately before the adjuvant, 24 hours and 48 hours after the adjuvant (days 0, 1 and 2). The injected hind paw volume is measured before the injection of adjuvant and 24 hrs. after the last drug administration (day 3) by means of a plethysmometer (Buxco Electronics Inc.). The difference between the hind paw volume on day 0 and day 3 represents the edema volume. […]
The mean edema volume (expressed as mL±SEM) is calculated for each group and the percentage protection conferred by the drug is calculated: [formula] where c is the mean edema volume for the vehicle-treated (0.5% Tween 80 in distilled water) controls and t is the mean edema volume for the drug treated group.

The values below come from US4855445A, “Substituted-8-alkenyl-1,3,4,9-tetrahydropyrano[3,4-b]indole-1-acetic acids” (American Home Products Corporation, priority 1987, dated 1989).

Counter-ions that a name gives are not always drawn.

`C/C=C\c1c(F)ccc2c3c([nH]c12)C(CC)(CC(=O)O)OCC3` (stereo not shown) [Example 1, (Z)-1-Ethyl-7-fluoro-1,3,4,9-tetrahydro-8-(1-propenyl)pyrano[3,4-b]indole-1-acetic Acid, 1,2-Ethanediamine Salt]: the “Phenylquinone Writhing in Mice, percent inhibition” value in experiment [1] (10 mg/kg) came out at 32%. In experiment [2] (10 mg/kg), the “Preventative Adjuvant Edema, percent inhibition” value was 69%.

Consider `C/C=C\c1cccc2c3c([nH]c12)C(CC)(CC(=O)O)OCC3` (stereo not shown) [Example 2, (Z)-1-Ethyl-8-(1-propenyl)-1,3,4,9-tetrahydropyrano[3,4-b]indole-1-acetic Acid], for which the “Phenylquinone Writhing in Mice, percent inhibition” value in experiment [1] (200 mg/kg) stood at 11%. Further, the “Preventative Adjuvant Edema, percent inhibition” value in experiment [2] (25 mg/kg) came out at 73%.
